Here are results for 16 compounds from patent US11478451B1, “Macrocyclic chlorine substituted indole derivatives” (Bayer Aktiengesellschaft, priority 2017, dated 2022).

As a reminder, the EC50 is the concentration at which the effect is half-maximal. Read a low EC50 as higher potency in that assay.

Where a name gives a salt, the structure may show the parent alone. Read-outs that look alike come from different tables or passages of the source.

In series [1] the test system is SUDHL5 cells. Kind of series: Induction of caspase-3/7 activity (Caspase-Glo 3/7), SUDHL5. The conditions noted are these: EC50, median, SUDHL5, 3 h treatment. Type of series: cell-based. As to the method:
(§1) Induction of Caspase-3/7 Activity Upon Treatment of Cells with Selected Compounds
(§2) The BH3-domain of MCL-1 sequesters pro-apoptotic proteins, thereby inhibiting apoptosis. In contrast, MCL-1 inhibitors are expected to antagonize this effect leading to an increase in apoptosis, which can be determined by measuring the activity of caspase-3/7.
(§3) The activity of caspase-3/7 was determined in DLBCL (Diffuse large B-cell lymphoma) cell lines (SUDHL5 and SUDHL10) upon treatment with different compounds, using the Caspase-Glo® 3/7 reagent from Promega (G8092).
(§4) Rim wells were excluded. The cells were incubated for 3 h hours in a humidified incubator at 37° C.
(§5) For the evaluation of the results, the background measured with “medium-only” was subtracted from all other values.

Series [2] concerns AMO-1 cells. Kind of series: Antiproliferation assay (CellTiter-Glo, 72 h), AMO-1. Type of series: cell-based. The conditions noted are these: IC50, median, AMO-1, 72 h, read-out: Antiproli AMO-1 [M] median. As to the method:
Assessment of the Anti-Proliferative Effect of Compounds in Different Cell Lines
The impact of compounds on the proliferation of different cell lines was assessed using the CellTiter-Glo® Luminescent Cell Viability reagent from Promega (G7573).
In parallel, cells were plated in a reference (day 0) plate for time zero determination.
Rim wells were excluded. The cells were incubated for 72 h hours in a humidified incubator at 37° C. The day 0 plate was measured by adding 30 μL/well of CTG solution (CellTiter-Glo® Luminescent Cell Viability reagent, Promega G7573) to time zero wells in the reference plate followed by a 10 minutes incubation and luminescence reading at 0.1 ms. using the PHERAstar FS microplate reader (BMG Labtech).
After 72 h incubation, the treated plates were measured in the same way as the day 0 plate mentioned above.
(In general: Cellular ATP, detected with luciferase, serves as a proxy for viable cell number.)

The subject of series [3] is SUDHL5 cells. Kind of series: Induction of cytotoxicity (CellTiter-Glo, 5 h), SUDHL5. To be noted: SUDHL5, 5 h.
In series [4] the test system is SUDHL10 cells. Kind of series: Induction of cytotoxicity (CellTiter-Glo, 5 h), SUDHL10. To be noted: read-out: Cytotox SUDHL10 [M] (median); IC50, median; SUDHL10, 5 h.
Series [5] deals with SUDHL10 cells. Nature of the series: Induction of caspase-3/7 activity (Caspase-Glo 3/7), SUDHL10. Format: cell-based. To be noted: EC50, median; SUDHL10, 3 h treatment. As to the method:
as §1, §2, §3, §4, §5

[6] abbreviates: read-out: Cytotox SUDHL5 [M] (median), IC50, median.
Setting [7] is: Homo sapiens, SU-DHL-5, 5 h, read-out: Cytotox SUDHL5 [M] (median), IC50, median.

On to `CCc1c2c(nn1C)CCCCCCn1c(C(=O)O)c(CCCOc3cccc4cc(F)ccc34)c3ccc(Cl)c-2c31` (racemic) [Example 54, (rac)-4-chloro-3-ethyl-7-{3-[(6-fluoronaphthalen-1-yl)oxy]propyl}-2-methyl-10,11,12,13,14,15-hexahydro-2H-pyrazolo[4′,3′:4,5]azacycloundecino[3,2,1-hi]indole-8-carboxylic acid], for which the response in series [1] (Homo sapiens, SU-DHL-5, 3 h) was half-maximal at 3.5 µM (EC50). With `CCc1c2c(nn1C)CN(C)CCCCn1c(C(=O)O)c(CCCOc3cccc4ccccc34)c3ccc(Cl)c-2c31` (racemic) [Example 22, (rac)-4-chloro-3-ethyl-2,14-dimethyl-7-[3-(naphthalen-1-yloxy)propyl]-10,11,12,13,14,15-hexa-hydro-2H-pyrazolo[3′,4′:8,9][1,6]diazacycloundecino[10,11,1-hi]indole-8-carboxylic acid], the IC50 in series [2] (Homo sapiens, AMO1, 72 h) was 6.6e-07 M. For the compound `CCc1nn(CCN2CCOCC2)c2c1-c1c(Cl)ccc3c(CCCOc4cccc5ccccc45)c(C(=O)O)n(c13)CCCCN(C)C2` (single isomer, unassigned; enantiomer 1) [Example 46, 4-chloro-3-ethyl-14-methyl-1-[2-(morpholin-4-yl)ethyl]-7-{3-[(naphthalen-1-yl)oxy]propyl}-10,11,12,13,14,15-hexahydro-1H-pyrazolo[3′,4′:8,9][1,6]diazacycloundecino[10,11,1-hi]indole-8-carboxylic acid (Enantiomer 1)], the IC50 in series [2] (Homo sapiens, AMO1, 72 h) is 5.9e-07 M; in series [3] (setting [6]), 4e-07 M. With `CCc1c2c(nn1C)CN(C)CCCCn1c(C(=O)O)c(CCCOc3cccc4cc(F)ccc34)c3ccc(Cl)c-2c31` (single isomer, unassigned; enantiomer 2) [Example 7, 4-chloro-3-ethyl-7-{3-[(6-fluoronaphthalen-1-yl)oxy]propyl}-2,14-dimethyl-10,11,12,13,14,15-hexahydro-2H-pyrazolo[3′,4′:8,9][1,6]diazacycloundecino[10,11,1-hi]indole-8-carboxylic acid (Enantiomer 2)], the IC50 came out at 6.6e-06 M in series [2], 9.3e-06 M in series [4] and 6.1e-06 M in series [3] (setting [6]). The compound also returned an EC50 in series [1] (Homo sapiens, SU-DHL-5, 3 h) of 8 µM. Take `CCc1c2c(nn1C)CN(CCOC)CCCCn1c(C(=O)O)c(CCCOc3cccc4cc(F)ccc34)c3ccc(Cl)c-2c31` (single isomer, unassigned; enantiomer 1) [Example 132, 4-chloro-3-ethyl-7-{3-[(6-fluoronaphthalen-1-yl)oxy]propyl}-14-(2-methoxyethyl)-2-methyl-10,11,12,13,14,15-hexahydro-2H-pyrazolo[3′,4′:8,9][1,6]diazacycloundecino[10,11,1-hi]indole-8-carboxylic acid (Enantiomer 1)]: in series [1] (Homo sapiens, SU-DHL-5, 3 h), it took 9.3 µM to reach a half-maximal effect (EC50). Besides, in series [3] (setting [7]), the IC50 stood at 8.2e-06 M. For `Cc1c2c(nn1C)COCC1CCC1Cn1c(C(=O)O)c(CCCOc3cccc4ccccc34)c3ccc(Cl)c-2c31` (single isomer, unassigned; stereoisomer 1) [Example 63], in series [1], the EC50 was 9 µM. As for `CCc1c2c(nn1C)COCCCCn1c(C(=O)O)c(CCCOc3cccc4cc(F)ccc34)c3ccc(Cl)c-2c31` (single isomer, unassigned; enantiomer 2) [Example 38, (−)-4-chloro-3-ethyl-7-{3-[(6-fluoronaphthalen-1-yl)oxy]propyl}-2-methyl-2,10,11,12,13,15-hexahydropyrazolo[4′,3′:9,10][1,6]oxazacycloundecino[8,7,6-hi]indole-8-carboxylic acid-N-ethylethanamine salt (Enantiomer 2)], the EC50 in series [1] (Homo sapiens, SU-DHL-5, 3 h) was 5.4 µM. This counts as single-digit micromolar. Take `Cc1c2c(nn1C)COCCCCn1c(C(=O)O)c(CCCOc3cccc4cc(F)ccc34)c3ccc(Cl)c-2c31` (racemic) [Example 14, (rac)-4-chloro-7-{3-[(6-fluoronaphthalen-1-yl)oxy]propyl}-2,3-dimethyl-2,10,11,12,13,15-hexahydropyrazolo[4′,3′:9,10][1,6]oxazacycloundecino[8,7,6-hi]indole-8-carboxylic acid]: in series [2] (Homo sapiens, AMO1, 72 h), the IC50 is 7.4e-07 M. Same read-out and setting: the figure for `CCc1c2c(nn1C)COCCCCn1c(C(=O)O)c(CCCOc3cccc4cc(F)ccc34)c3ccc(Cl)c-2c31` (racemic) [Example 36, (rac)-4-chloro-3-ethyl-7-{3-[(6-fluoronaphthalen-1-yl)oxy]propyl}-2-methyl-2,10,11,12,13,15-hexahydropyrazolo[4′,3′:9,10][1,6]oxazacycloundecino[8,7,6-hi]indole-8-carboxylic acid] is 2.9e-07 M. Consider `CCc1nn(CCN2CCOCC2)c2c1-c1c(Cl)ccc3c(CCCOc4cccc5ccccc45)c(C(=O)O)n(c13)C/C=C\CN(C)C2` (single isomer, unassigned; enantiomer 1) [Example 43, (11Z)-4-chloro-3-ethyl-14-methyl-1-[2-(morpholin-4-yl)ethyl]-7-{3-[(naphthalen-1-yl)oxy]propyl}-10,13,14,15-tetrahydro-1H-pyrazolo[3′,4′:8,9][1,6]diazacycloundecino[10,11,1-hi]indole-8-carboxylic acid-ammonia salt (Enantiomer 1)], for which the IC50 in series [3] (setting [7]) was 6e-07 M. Regarding `CCc1c2c(nn1C)CN(C)CCCCn1c(C(=O)O)c(CCCOc3cccc4ccccc34)c3ccc(Cl)c-2c31` (single isomer, unassigned; enantiomer 2) [Example 24, 4-chloro-3-ethyl-2,14-dimethyl-7-[3-(naphthalen-1-yloxy)propyl]-10,11,12,13,14,15-hexahydro-2H-pyrazolo[3′,4′:8,9][1,6]diazacycloundecino[10,11,1-hi]indole-8-carboxylic acid (Enantiomer 2)], the EC50 in series [1] (Homo sapiens, SU-DHL-5, 3 h) was 4.5 µM. Take `CCc1c2c(nn1C)CCCCCCn1c(C(=O)O)c(CCCOc3cccc4ccccc34)c3ccc(Cl)c-2c31` (single isomer, unassigned; enantiomer 1) [Example 52, (+)-4-chloro-3-ethyl-2-methyl-7-{3-[(naphthalen-1-yl)oxy]propyl}-10,11,12,13,14,15-hexahydro-2H-pyrazolo[4′,3′:4,5]azacycloundecino[3,2,1-hi]indole-8-carboxylic acid-N-ethylethanamine salt—Enantiomer 1]: the IC50 in series [2] (Homo sapiens, AMO1, 72 h) came out at 2.2e-06 M; in series [4], 2e-06 M. Further, a half-maximal effect in series [1] (Homo sapiens, SU-DHL-5, 3 h) (EC50) was put at 0.8 µM. Take `Cc1c2c(nn1C)COCC(F)(F)CCn1c(C(=O)O)c(CCCOc3cccc4cc(F)ccc34)c3ccc(Cl)c-2c31` (racemic) [Example 90, (rac)-4-Chloro-12,12-difluoro-7-{3-[(6-fluoronaphthalen-1-yl)oxy]propyl}-2,3-dimethyl-2,10,11,12,13,15-hexahydropyrazolo[4′,3′:9,10][1,6]oxazacycloundecino[8,7,6-hi]indole-8-carboxylic acid]: the IC50 in series [2] (Homo sapiens, AMO1, 72 h) was found to be 4.9e-06 M; in series [3] (setting [7]), 9.9e-06 M. Besides, the EC50 in series [1] (Homo sapiens, SU-DHL-5, 3 h) came out at 8.5 µM.

Take `Cc1nn(C)c2c1-c1c(Cl)ccc3c(CCCOc4cccc5ccccc45)c(C(=O)O)n(c13)CCCCOC2` (racemic) [Example 2, rac-4-chloro-1,3-dimethyl-7-[3-(naphthalen-1-yloxy)propyl]-1,10,11,12,13,15-hexahydropyrazolo[4′,3′:9,10][1,6]oxazacycloundecino[8,7,6-hi]indole-8-carboxylic acid]: the IC50 in series [2] (Homo sapiens, AMO1, 72 h) came out at 4.9e-06 M. On to `Cc1c2c(nn1C)COCC(F)(F)CCn1c(C(=O)O)c(CCCOc3cccc4ccccc34)c3ccc(Cl)c-2c31` (single isomer, unassigned; enantiomer 2) [Example 57, 4-chloro-12,12-difluoro-2,3-dimethyl-7-{3-[(naphthalen-1-yl)oxy]propyl}-2,10,11,12,13,15-hexahydropyrazolo[4′,3′:9,10][1,6]oxazacycloundecino[8,7,6-hi]indole-8-carboxylic acid-N-ethylethanamine salt—Enantiomer 2], for which the EC50 in series [5] stood at 8 µM; in series [1] it was 3.2 µM. The IC50 turned out to be 7.6e-06 M in series [2] and 4.9e-06 M in series [3] (setting [6]). Consider `CCc1c2c(nn1C)CN(C)CCCCn1c(C(=O)O)c(CCCOc3cccc4cc(F)ccc34)c3ccc(Cl)c-2c31` (racemic) [Example 5, (rac)-4-chloro-3-ethyl-7-{3-[(6-fluoronaphthalen-1-yl)oxy]propyl}-2,14-dimethyl-10,11,12,13,14,15-hexahydro-2H-pyrazolo[3′,4′:8,9][1,6]diazacycloundecino[10,11,1-hi]indole-8-carboxylic acid], for which, in series [2] (Homo sapiens, AMO1, 72 h), the IC50 is 6.1e-07 M.
